According to US10240133B2, “ERK-derived peptides and uses thereof” (Yeda Research and Development Co. Ltd., priority 2013, dated 2019):

How the values were obtained:
A2352 xenografts = assay: Tumor disappearance and recurrence in A2352 xenografts, EPE peptide compared with PLX4032; type: in vivo, SCID mice
Description: FIGS. 6A-6B illustrate that the EPE peptide prevents the growth of human tumor xenografts. CD-1 nude mice were inoculated with MDA-MB-231, LOXIMVI and HCT-116 cells, and SKID mice were inoculated with A2352 cells. Upon tumors establishment, the mice were treated intravenously with the DMSO as well as EPE or Scr peptides in the indicated doses, 3 times a week. The results are averages of 5 mice in each experimental group. The X, Y, Z dimensions of the tumors were measured with a caliper, and the volume was calculated accordingly. The significance of all experiments was at least P<0.001. (B) The EPE peptide prevents tumor recurrence on melanoma xenograft. SCID mice were inoculated with A2352 cells. Upon establishment of tumors mice were treated intravenously with 15 mg/kg EPE peptide (n=7) or intraperitonealy with 15 mg/kg PLX4032 (n=5), at the indicated dose 3 times a week. Tumor size was recorded at the same time using a caliper. Following 3 weeks of treatment, mice were kept for further evaluation monitoring for any tumor recurrence of the effective treated melanoma xenografts. Experiment was concluded 110 days post inoculation (11 weeks after the last treatment) and the overall state of the animals was evaluated. sac=sacrificed, recur=recurrence, met=metastasis.
Tumor dimensions were measured with a digital sliding caliper.

RSK = assay: Western blotting of RSK phosphorylation; type: cell-based; details: four distinct cell lines
Description: (§1) (A) EPE peptide prevents ERK1/2-importin7 interaction. HeLa cells were serum starved (0.1%, 16 hours), pretreated with EPE peptide, scrambled peptide (10 μM, 2 hours) or DMSO, and then stimulated with TPA (250 nM, 15 min). ERK1 were precipitated with αgERK1 Ab; importin7 co-immunoprecipitated with ERK1 was detected by WB with αimportin7 Ab. […] T47D, HeLa, MDA-MB-231 and A2352 cells were serum starved (0.1%, 16 hours), pretreated with EPE peptide, scrambled peptide (10 μM, 2 hours) or DMSO control, and then stimulated with TPA (250 nM, indicated times). Cell extracts were subjected to Western blot analysis with the indicated Abs. (C) EPE peptide inhibits phosphorylation of c-Myc and Elk1 in B-Raf melanomas. A2158 and A2352 cells were treated with scrambled and EPE peptide for two hours and then stimulated with the indicated concentration of TPA for 30 min. […] (D) Quantification of some of the results in B and C. […]
(§2) (i) Preparation of cellular extracts for Western Blotting: Cells were rinsed twice with ice-cold PBS and scraped into Radio-immunoprecipitation assay buffer (RIPA; 137 mM NaCl, 20 mM Tris (pH 7.4), 10% glycerol, 1% Triton X-100, 0.5% deoxycholate, 0.1% SDS, 2 mM EDTA, 1 mM PMSF, and 20 μM leupeptin). The extracts were centrifuged (20,000×g, 15 min, 4° C.), and the supernatants were further analyzed by Western blotting. […]

[1] = test system: PLX-4032 and U0126 resistant A2352 melanoma cells; assay: Proliferation of inhibitor-resistant melanoma cells; type: cell-based; details: 10 μM, 72 h
Description: (A) A2352 melanoma cells resistant to either PLX4032 (B-Raf) or U0126 (MEK) inhibitors were treated with DMSO, EPE or Scr peptide (10 μM), U0126 (10 μM), PLX4032 (1 μM), Wortmannin (0.5 μM) or Taxol (25 μg/ml). Presented as percent of viable cells at 72 h/initial cell number. […] Methylene blue assay was performed to quantify viable cells. Experiments were done twice in triplicate. Data presented as fold change.
All cells, except of MCF-10A, were seeded into 12-well cell plates in 1% FBS medium. MCF-10A cells were seeded in their complete medium diluted 5 fold. DMSO, Scr peptide, EPE peptide, or U0126 (final concentration of 10 μM each) were added to the appropriated wells four hours later. Every day medium was changed to fresh one containing the same agents. The number of viable cells was measured by Methylene Blue assay at 72 h after cell seeding. Shortly, cells were fixed with 4% Formaldehyde for 2 h at 23° C., washed once with 0.1M Borate Buffer pH 8.5 and stained with of 1% Methylene Blue in 0.1M Borate Buffer for 10 min. Color was extracted by adding 0.1 M HCl for 3 h at 23° C., and examined at 595 nm.
A2352 cells were supplemented with either PLX4032 (B-Raf inhibitor, 1 μM), or U0126 (MEK inhibitor, 10 μM) for 45 days. […]

most cell lines examined = assay: Morphology assay (light microscopy); type: cell-based; details: 10 μM
Description: FIGS. 5A-5D illustrate that the EPE peptide leads to apoptosis of B-Raf mutant cancer cells. (A) The EPE peptide affects the morphology of treated cells. The indicated cells were treated with either the EPE or Scr peptides, DMSO, or taxol for 72 h, and photographed by a light microscope. (B) The EPE peptide induces apoptosis in melanoma cells detected by TUNEL. The indicated cell lines were treated as in A for 24 h. Apoptosis was detected by TUNEL staining. Images were obtained by florescence microscope. (C) Quantification of B. The bar-graph represents percent of apoptotic cells calculated in 10 different fields. (D) The EPE peptide induces apoptosis of melanoma cells detected by PARP cleavage. The indicated cell lines were treated as in (A) for 24 h. Cell extracts were subjected to Western blotting with αPARP Ab.
Cells were seeded on glass cover slips in a 12-wells plate at 25% confluence with medium containing 1% of FCS. Peptides (EPE or Scr), DMSO, or U0126 in a final concentration of 10 μM, were added after 4 h (considered as time “0”). TUNEL staining was performed at 24 h after the treatment according to manufacturer instruction (Roche Applied Science, Nutley, N.J., USA). Briefly, the medium was removed and cells were fixed with 3% of paraformaldehyde (1.5 h, 23° C.). Cells were rinsed twice with PBS and permeabilized with 0.1% Triton X-100 and 0.1% sodium citrate for 2 min on ice. Cells were rinsed twice with PBS and 28 μl of TUNEL reaction mixture (25 μl of TUNEL label, 2.5 μl of TUNEL enzyme and 0.1 mg/ml of DAPI) was added directly on top of the slide, cells were incubated for 16 h in humid box at 37° C. Cover slips were rinsed three times with PBS and mounted on microscope slides. The slides were dried and then subjected to image acquisition by a florescence microscope. For morphology assay, the cells were seeded at approximately 25% confluence in 6 cm plates with medium containing 1% FCS. Peptides (EPE and Scr) or DMSO or U0126 in a final concentration of 10 μM, were added after 4 h (considered to be time 0), 24 h and 48 h. […]

Elk1 = assay: Western blotting of Elk1 phosphorylation; type: cell-based; details: varied among the cell lines; EPE vs scrambled after TPA
Description: as §1, §2

GQLNHILGILGEPEQED (Synthetic peptide (EPE)) [EPE peptide, NTS-derived peptide with phosphomimetic EPE motif]
time to complete disappearance of tumors (A2352 xenografts; 15 mg/kg, 3 times a week): 10 to 23 days | tumor disappearance (A2352 xenografts; 15 mg/kg, 3 times a week, 3 weeks, EPE i.v. (n=7), PLX4032 i.p. (n=5), initial ~80 mm3 tumors): complete disappearance of the tumors of all mice | overall state of animals after treatment (A2352 xenografts; follow up after last treatment, incl. 5 other animals in a repeating experiment): remained healthy up to 11 weeks after treatment | mice with tumor recurrence (A2352 xenografts; follow up for up to 11 weeks after last treatment): None | downstream activity of RSK (RSK): no effect | cell growth [1]: able to reduce cell growth | cell morphology (most cell lines examined): no effect | inhibition of phosphorylation of Elk1 (Elk1): 20-45%
